The values that follow come from US20170121315A1, “HETEROBICYCLICALLY SUBSTITUTED 4-OXOBUTANE ACID DERIVATIVES AND USE THEREOF” (priority 2014, published 2017).

Each structure is given as a SMILES string.

Common to all, as to type: biochemical
Test [1] deals with T1, MMP-16 (Homo sapiens, UniProt P51512).
T1 construct: purchased R&D Systems 1785-MP
Kind of test: In vitro MMP-16 inhibition test. To be noted: human MMP-16. An excerpt:
(§1) The MMP-mediated amidolytic cleavage of a suitable peptide substrate leads to an increase in fluorescent light here too. The signal intensity of the fluorescent light is directly proportional to the enzyme activity. The active concentration of a test compound at which half the enzyme is inhibited (50% signal intensity of the fluorescent light) is reported as the IC50 value.
Recombinant MMP-16 (R&D Systems, 1785-MP) is enzymatically activated in accordance with the manufacturer's instructions using recombinant furin (R&D Systems, 1503-SE). 1 μl of the test compound to be analysed (as a solution in DMSO, suitable concentrations e.g. 1 nM to 30 μM) is pipetted into 24 μl of activated enzyme (final concentration e.g. 1 nM) in reaction buffer (50 mM Tris/HCl pH 7.5, 10 mM CaCl2, 150 mM NaCl, 0.05% Brij®-35) in a white 384-hole microtiter plate (MTP). The enzymatic reaction is started by adding the intramolecularly quenched Mca-Lys-Pro-Leu-Gly-Leu-Dpa(Dnp)-Ala-Arg-NH2 substrate (final concentration e.g. 5 μM; R&D Systems, ES-010), so as to result in a total test volume of 50 μl. The course of the MMP-16 reaction is measured by measuring the fluorescence intensity (excitation 320 nm, emission 410 nm) over a suitable period of time (e.g. over 120 min at a temperature of 32° C.).

In test [2] the target is T2, MMP-7 (Homo sapiens, UniProt P09237).
T2 construct: purchased R&D Systems 907-MP
T2 sequence (P09237 95-267): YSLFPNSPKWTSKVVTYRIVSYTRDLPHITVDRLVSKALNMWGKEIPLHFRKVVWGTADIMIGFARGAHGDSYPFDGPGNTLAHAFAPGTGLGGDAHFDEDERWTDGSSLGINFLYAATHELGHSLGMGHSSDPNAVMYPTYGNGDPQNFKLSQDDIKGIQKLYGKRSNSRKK
Kind of test: In vitro MMP-7 inhibition test. To be noted: human MMP-7.
Description: as §1
(§2) Recombinant MMP-7 (from R&D Systems, 907-MP) is chemically activated in accordance with the manufacturer's instructions using APMA. 1 μl of the test compound to be analysed (as a solution in DMSO, suitable concentrations e.g. 1 nM to 30 μM) is pipetted into 24 μl of activated enzyme (final concentration e.g. 0.5 nM) in reaction buffer (50 mM Tris/HCl pH 7.5, 10 mM CaCl2, 150 mM NaCl, 0.05% Brij®-35) in a white 384-hole microtiter plate (MTP). The enzymatic reaction is started by adding the intramolecularly quenched Mca-Pro-Leu-Gly-Leu-Dpa(Dnp)-Ala-Arg-NH2 substrate (final concentration e.g. 10 μM; R&D Systems, ES-001), so as to result in a total test volume of 50 μl. The course of the MMP-7 reaction is measured by measuring the fluorescence intensity (excitation 320 nm, emission 410 nm) over a suitable period of time (e.g. over 120 min at a temperature of 32° C.).

Test [3] has as its target T3, MMP-10 (Homo sapiens, UniProt P09238).
T3 construct: purchased R&D Systems 910-MP
Kind of test: In vitro MMP-10 inhibition test. As to conditions: human MMP-10.
Description: as §1
as §2, with “MMP-10 (R&D” for “MMP-7 (from R&D”, “910-MP)” for “907-MP)”, “2” for “0.5”, “Mca-Arg-Pro-Lys-Pro-Val-Glu-Nval-Trp-Arg-Lys(Dnp)-NH2” for “Mca-Pro-Leu-Gly-Leu-Dpa(Dnp)-Ala-Arg-NH2”, “ES-002),” for “ES-001),”, “MMP-10” for “MMP-7”

Test [4] concerns the target T4, MMP-3 (Homo sapiens, UniProt P08254).
T4 construct: purchased R&D Systems 513-MP
Nature of the test: In vitro MMP-3 inhibition test. As to conditions: human MMP-3.
Description: as §1
as §2, with “MMP-3 (R&D” for “MMP-7 (from R&D”, “513-MP)” for “907-MP)”, “2” for “0.5”, “Mca-Arg-Pro-Lys-Pro-Val-Glu-Nval-Trp-Arg-Lys(Dnp)-NH2” for “Mca-Pro-Leu-Gly-Leu-Dpa(Dnp)-Ala-Arg-NH2”, “ES-002),” for “ES-001),”, “MMP-3” for “MMP-7”

For orientation: IC50 means the midpoint of a concentration-inhibition curve. High values mean weaker potency, low ones greater potency.

T1 sequence (P51512 120-564 limits assumed): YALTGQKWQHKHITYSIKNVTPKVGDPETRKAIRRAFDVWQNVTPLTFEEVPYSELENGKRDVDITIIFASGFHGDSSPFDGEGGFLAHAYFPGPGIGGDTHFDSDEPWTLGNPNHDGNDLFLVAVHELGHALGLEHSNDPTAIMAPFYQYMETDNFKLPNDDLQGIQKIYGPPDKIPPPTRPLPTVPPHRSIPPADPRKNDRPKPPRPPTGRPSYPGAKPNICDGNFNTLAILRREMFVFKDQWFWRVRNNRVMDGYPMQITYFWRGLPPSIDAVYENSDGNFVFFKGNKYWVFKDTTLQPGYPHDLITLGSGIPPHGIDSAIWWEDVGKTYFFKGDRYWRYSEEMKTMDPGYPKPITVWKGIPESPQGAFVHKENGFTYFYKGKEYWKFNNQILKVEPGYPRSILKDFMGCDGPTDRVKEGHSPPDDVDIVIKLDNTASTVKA
T4 sequence (P08254 100-477): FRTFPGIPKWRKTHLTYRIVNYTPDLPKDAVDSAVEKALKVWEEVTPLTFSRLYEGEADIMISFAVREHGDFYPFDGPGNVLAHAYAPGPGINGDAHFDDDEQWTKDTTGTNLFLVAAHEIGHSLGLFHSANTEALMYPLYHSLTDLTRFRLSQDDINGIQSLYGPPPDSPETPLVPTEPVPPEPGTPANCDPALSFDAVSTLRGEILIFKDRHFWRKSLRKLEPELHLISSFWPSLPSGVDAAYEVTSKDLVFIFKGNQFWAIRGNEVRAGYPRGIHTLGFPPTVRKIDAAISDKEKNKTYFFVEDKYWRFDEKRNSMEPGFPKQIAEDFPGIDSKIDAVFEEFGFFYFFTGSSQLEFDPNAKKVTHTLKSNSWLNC
T3 sequence (P09238 99-476): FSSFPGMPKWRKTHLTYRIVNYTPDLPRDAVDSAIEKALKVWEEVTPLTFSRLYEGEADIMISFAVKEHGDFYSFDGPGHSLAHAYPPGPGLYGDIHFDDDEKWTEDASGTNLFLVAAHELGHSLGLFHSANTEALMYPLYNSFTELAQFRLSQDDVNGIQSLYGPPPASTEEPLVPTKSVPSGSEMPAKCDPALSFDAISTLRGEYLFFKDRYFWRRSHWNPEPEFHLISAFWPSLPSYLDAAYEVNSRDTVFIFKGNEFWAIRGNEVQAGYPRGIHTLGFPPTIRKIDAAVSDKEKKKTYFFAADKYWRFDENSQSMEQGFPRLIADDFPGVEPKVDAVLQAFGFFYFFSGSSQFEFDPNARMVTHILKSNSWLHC

As to `O=C(CC(CCn1nnc2ccccc2c1=O)C(=O)O)c1cc2cc(OCCCc3ccccc3)ccc2o1` (racemic) [Example 37, (+/−)-4-Oxo-2-[2-(4-oxo-1,2,3-benzotriazin-3(4H)-yl)ethyl]-4-[5-(3-phenylpropoxy)-1-benzofur-2-yl]butanoic acid], the IC50 in test [1] is more than 40 µM; in test [2] it was more than 40 µM; in test [3], 29 µM; in test [4], 39 µM.

For `CCCCCCOc1ccc2c(C(=O)CC(CCn3nnc4ccccc4c3=O)C(=O)O)coc2c1` (single isomer, unassigned; (+)) [Example 100, (+)-4-[6-(Hexyloxy)-1-benzofur-3-yl]-4-oxo-2-[2-(4-oxo-1,2,3-benzotriazin-3(4H)-yl)ethyl]butanoic acid], the IC50 is more than 40 µM in test [1], more than 40 µM in test [2], 11 µM in test [3] and more than 40 µM in test [4].

Regarding `O=C(CC(CCn1nnc2ccccc2c1=O)C(=O)O)c1cc2cc(OCCC3CCCC3)ccc2o1` (racemic) [Example 7, (+/−)-4-[5-(2-Cyclopentylethoxy)-1-benzofur-2-yl]-4-oxo-2-[2-(4-oxo-1,2,3-benzotriazin-3(4H)-yl)ethyl]butanoic acid], the half-maximal inhibitory concentration (IC50) in test [1] was more than 40 µM; in test [2], more than 40 µM; in test [3], 9.3 µM; in test [4], 27 µM.

`O=C(CC(CCn1nnc2ccccc2c1=O)C(=O)O)c1cc2cc(OCCCC(F)(F)F)ccc2o1` (single isomer, unassigned; enantiomer 2) [Example 13, (+)-4-Oxo-2-[2-(4-oxo-1,2,3-benzotriazin-3(4H)-yl)ethyl]-4-[5-(4,4,4-trifluorobutoxy)-1-benzofur-2-yl]butanoic acid (enantiomer 2)]: the half-maximal inhibitory concentration (IC50) in test [1] was more than 40 µM; in test [2] it was more than 40 µM; in test [3], 15 µM; in test [4] it was more than 40 µM.

As for `CCCOc1ccc2cc(C(=O)CC(CCn3nnc4ccccc4c3=O)C(=O)O)oc2c1` (racemic) [Example 58, (+/−)-4-Oxo-2-[2-(4-oxo-1,2,3-benzotriazin-3(4H)-yl)ethyl]-4-(6-propoxy-1-benzofur-2-yl)butanoic acid], the IC50 in test [1], in test [2], in test [3] and in test [4] was more than 40 µM in each case.

Take `O=C(CC(CCn1nnc2ccccc2c1=O)C(=O)O)c1cc2cc(OCC3CCCCC3)ccc2o1` (racemic) [Example 8, (+/−)-4-[5-(Cyclohexylmethoxy)-1-benzofur-2-yl]-4-oxo-2-[2-(4-oxo-1,2,3-benzotriazin-3(4H)-yl)ethyl]butanoic acid]: the IC50 in test [1], in test [2], in test [3] and in test [4] was more than 40 µM throughout.

As to `CCCCCCCOc1ccc2cc(C(=O)CC(CCn3nnc4ccccc4c3=O)C(=O)O)oc2c1` (single isomer, unassigned; (+)) [Example 69, (+)-4-[6-(Heptyloxy)-1-benzofur-2-yl]-4-oxo-2-[2-(4-oxo-1,2,3-benzotriazin-3(4H)-yl)ethyl]butanoic acid acid], the IC50 in test [1] was more than 40 µM; in test [2] it was more than 40 µM; in test [3], 28 µM; in test [4], 36 µM.

As to `O=C(CC(CCn1nnc2ccccc2c1=O)C(=O)O)c1cc2ccc(OCCc3ccccc3)cc2s1` (racemic) [Example 114, (+/−)-4-Oxo-2-[2-(4-oxo-1,2,3-benzotriazin-3(4H)-yl)ethyl]-4-[6-(2-phenylethoxy)-1-benzothiophen-2-yl]butanoic acid], the 50% inhibitory concentration (IC50) in test [1] stood at 28 µM; in test [2], 5.3 µM; in test [3], 3.4 µM; in test [4] it was 3.2 µM.

As for `O=C(O)[C@H]1[C@H](Cn2nnc3ccc(C(F)(F)F)cc3c2=O)CC[C@@H]1C(=O)c1cc2cc(OCCc3ccccc3)ccc2o1` (racemic) [Example 157, (+/−)-(1RS,2SR,5RS)-2-{[4-Oxo-6-(trifluoromethyl)-1,2,3-benzotriazin-3(4H)-yl]methyl}-5-{[5-(2-phenylethoxy)-1-benzofur-2-yl]carbonyl}cyclopentanecarboxylic acid (racemate)], the concentration for half-maximal inhibition (IC50) in test [1] amounted to 4.9 µM; in test [2] it was 0.16 µM; in test [3], 0.19 µM; in test [4] it was 1.1 µM.

In the case of `O=C(CC(CCn1nnc2ccccc2c1=O)C(=O)O)c1cc2ccc(OCCc3ccccc3)cc2o1` (racemic) [Example 73, (+/−)-4-Oxo-2-[2-(4-oxo-1,2,3-benzotriazin-3(4H)-yl)ethyl]-4-[6-(2-phenylethoxy)-1-benzofur-2-yl]butanoic acid], the half-maximal inhibitory concentration (IC50) in test [1] is more than 40 µM; in test [2], more than 40 µM; in test [3] it was more than 40 µM; in test [4], 29 µM.

With `O=C(CC(CCn1nnc2ccccc2c1=O)C(=O)O)c1noc2cc(OCC3CC3)ccc12` (racemic) [Example 150, (+/−)-4-[6-(Cyclopropylmethoxy)-1,2-benzoxazol-3-yl]-4-oxo-2-[2-(4-oxo-1,2,3-benzotriazin-3(4H)-yl)ethyl]butanoic acid], the IC50 was 11 µM in test [1], 29 µM in test [2], more than 40 µM in test [3] and 33 µM in test [4].

As to `O=C(CC(CCn1nnc2ccccc2c1=O)C(=O)O)c1noc2cc(OCc3ccc(F)cc3)ccc12` (racemic) [Example 136, (+/−)-4-{6-[(4-Fluorobenzyl)oxy]-1,2-benzoxazol-3-yl}-4-oxo-2-[2-(4-oxo-1,2,3-benzotriazin-3(4H)-yl)ethyl]butanoic acid], the IC50 in test [1] was 30 µM; in test [2] it was more than 40 µM; in test [3], 12 µM; in test [4], 15 µM.

`CCCCCCCOc1ccc2oc(C(=O)CC(CCn3nnc4ccccc4c3=O)C(=O)O)cc2c1` (racemic) [Example 31, (+/−)-4-[5-(Heptyloxy)-1-benzofur-2-yl]-4-oxo-2-[2-(4-oxo-1,2,3-benzotriazin-3(4H)-yl)ethyl]butanoic acid]: the IC50 in test [1], in test [2], in test [3] and in test [4] was more than 40 µM each time.
